The source of these data is patent US20240190880A1 (THE REGENTS OF THE UNIVERSITY OF MICHIGAN, priority 2021, published 2024).

The target of one test is T1, ER (Homo sapiens, UniProt P03372).
T1 construct: host or cells: T47D and MCF7 human breast cancer cells
T1 sequence (P03372 1-595): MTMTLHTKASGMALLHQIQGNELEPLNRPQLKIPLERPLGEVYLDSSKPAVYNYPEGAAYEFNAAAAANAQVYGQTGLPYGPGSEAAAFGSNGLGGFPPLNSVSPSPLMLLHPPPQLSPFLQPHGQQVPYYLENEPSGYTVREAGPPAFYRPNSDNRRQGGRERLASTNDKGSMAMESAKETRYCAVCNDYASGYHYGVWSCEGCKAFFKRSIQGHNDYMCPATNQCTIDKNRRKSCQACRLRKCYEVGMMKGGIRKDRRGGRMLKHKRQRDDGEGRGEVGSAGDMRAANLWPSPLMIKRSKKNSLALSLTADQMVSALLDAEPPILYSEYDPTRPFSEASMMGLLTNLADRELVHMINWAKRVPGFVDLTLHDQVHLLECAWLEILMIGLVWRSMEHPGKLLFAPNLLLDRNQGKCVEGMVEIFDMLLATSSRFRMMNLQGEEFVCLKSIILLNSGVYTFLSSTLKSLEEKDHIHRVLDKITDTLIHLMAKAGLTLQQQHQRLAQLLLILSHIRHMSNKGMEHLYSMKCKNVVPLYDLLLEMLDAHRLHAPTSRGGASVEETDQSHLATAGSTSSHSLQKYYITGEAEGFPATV
Description: ER degradation activity, in-cell western blot analysis in T47D cells. Type of test: cell-based. The following applies: 16 hours, Table A does not say which cell line (T47D or MCF7), read-out: Potency (DC50). In short, it runs like this: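 Read-out is near-infrared fluorescence from an in-cell western, expressed as ER percentage relative to untreated and DMSO controls taken as 100%. T47D breast cancer cells received compound for 16 h in 0.5% DMSO.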
For orientation: DC50 means the concentration giving 50% degradation. Turning to `C[C@@H]1Cc2c([nH]c3ccccc23)[C@@H](c2c(F)cc(N3CC4(CCN(CC(=O)N5Cc6cc7c(cc6C5)C(=O)N(C5CCC(=O)NC5=O)C7)CC4)C3)cc2F)N1CC(F)F` (stereo partly drawn) [E 98, 3-(6-(2-(2-(4-((1R,3R)-2-(2,2-difluoroethyl)-3-methyl-2,3,4,9-tetrahydro-1H-pyrido[3,4-b]indol-1-yl)-3,5-difluorophenyl)-2,7-diazaspiro[3.5]nonan-7-yl)acetyl)-1-oxo-3,5,6,7-tetrahydropyrrolo[3,4-f]isoindol-2(1H)-yl)piperidine-2,6-dione], the DC50 was less than 10 nM. Turning to `C[C@@H]1Cc2c([nH]c3ccccc23)[C@@H](c2ccc(N3CCC4(CCN(CC(=O)N5Cc6cc7c(cc6C5)C(=O)N(C5CCC(=O)NC5=O)C7=O)CC4)CC3)cn2)N1CC(F)F` (stereo partly drawn) [E 292, 6-(2-(9-(6-((1S,3R)-2-(2,2-difluoroethyl)-3-methyl-2,3,4,9-tetrahydro-1H-pyrido[3,4-b]indol-1-yl)pyridin-3-yl)-3,9-diazaspiro[5.5]undecan-3-yl)acetyl)-2-(2,6-dioxopiperidin-3-yl)-6,7-dihydropyrrolo[3,4-f]isoindole-1,3(2H,5H)-dione], the DC50 was more than 100 nM. For `C[C@@H]1Cc2c([nH]c3ccccc23)[C@@H](c2c(F)cc(-c3ccc(C(=O)N4CCC(N5Cc6cc7c(cc6C5)C(=O)N(C5CCC(=O)NC5=O)C7=O)CC4)nn3)cc2F)N1CC(F)F` (stereo partly drawn) [E 345, 6-(1-(6-(4-((1R,3R)-2-(2,2-difluoroethyl)-3-methyl-2,3,4,9-tetrahydro-1H-pyrido[3,4-b]indol-1-yl)-3,5-difluorophenyl)pyridazine-3-carbonyl)piperidin-4-yl)-2-(2,6-dioxopiperidin-3-yl)-6,7-dihydropyrrolo[3,4-f]isoindole-1,3(2H,5H)-dione], the DC50 fell in the range of 10 to 100 nM. For `C[C@@H]1Cc2c([nH]c3ccccc23)[C@@H](c2c(F)cc(-c3ccc(C(=O)N4CCC(N5Cc6cc7c(cc6C5)C(=O)N(C5CCC(=O)NC5=O)C7=O)CC4)cn3)cc2F)N1CC(F)F` (stereo partly drawn) [E 343, 6-(1-(6-(4-((1R,3R)-2-(2,2-difluoroethyl)-3-methyl-2,3,4,9-tetrahydro-1H-pyrido[3,4-b]indol-1-yl)-3,5-difluorophenyl)nicotinoyl)piperidin-4-yl)-2-(2,6-dioxopiperidin-3-yl)-6,7-dihydropyrrolo[3,4-f]isoindole-1,3(2H,5H)-dione], the DC50 is less than 10 nM. On the same count and under the same terms, under `O=C1CCC(N2C(=O)c3cc4c(cc3C2=O)CN(Cc2ccc(N3CC(Nc5ccc([C@@H]6c7ccc(O)cc7CC[C@@H]6c6ccccc6)cc5)C3)nc2)C4)C(=O)N1` (stereo partly drawn) [E 373, 2-(2,6-dioxopiperidin-3-yl)-6-((6-(3-((4-((1R,2S)-6-hydroxy-2-phenyl-1,2,3,4-tetrahydronaphthalen-1-yl)phenyl)amino)azetidin-1-yl)pyridin-3-yl)methyl)-6,7-dihydropyrrolo[3,4-f]isoindole-1,3(2H,5H)-dione] stands more than 100 nM.

The same test, now with this note: compounds 16 hours, Table A does not say whether T47D or MCF7, read-out: Potency (DC50).
Regarding `C[C@@H]1Cc2c([nH]c3ccccc23)[C@@H](c2c(F)cc(C3CCC(C(=O)N4CCC(N5Cc6cc7c(cc6C5)C(=O)N(C5CCC(=O)NC5=O)C7=O)CC4)CC3)cc2F)N1CC(F)(F)CO` (stereo partly drawn) [E 400, 6-(1-(4-(4-((1R,3R)-2-(2,2-difluoro-3-hydroxypropyl)-3-methyl-2,3,4,9-tetrahydro-1H-pyrido[3,4-b]indol-1-yl)-3,5-difluorophenyl)cyclohexane-1-carbonyl)piperidin-4-yl)-2-(2,6-dioxopiperidin-3-yl)-6,7-dihydropyrrolo[3,4-f]isoindole-1,3(2H,5H)-dione], the DC50 is more than 100 nM.

In the case of `C[C@@H]1Cc2c([nH]c3ccccc23)[C@@H](c2ccc(C3=CCC(C(=O)N4CCC(N5Cc6cc7c(cc6C5)C(=O)N(C5CCC(=O)NC5=O)C7=O)CC4)CC3)cc2F)N1CC1(F)CC1` (stereo partly drawn) [E 486, 2-(2,6-dioxopiperidin-3-yl)-6-(1-(3′-fluoro-4′-((1R,3R)-2-((1-fluorocyclopropyl)methyl)-3-methyl-2,3,4,9-tetrahydro-1H-pyrido[3,4-b]indol-1-yl)-2,3,4,5-tetrahydro-[1,1′-biphenyl]-4-carbonyl)piperidin-4-yl)-6,7-dihydropyrrolo[3,4-f]isoindole-1,3(2H,5H)-dione], the DC50 was more than 100 nM.
